Reference: patent US6727263B2, “Indole and 2,3-dihydroindole derivatives, their preparation and use” (H. Lundbeck A/S, priority 1997, dated 2004)
Where two headings read alike, the source gives them in different places. Each block holds one compound with its values, some of them ahead of it.

Columns and labels:
[1] = test system: 3H-5-HT uptake into whole rat brain synaptosomes; test: Inhibition of 3H-5-HT uptake into rat brain synaptosomes; assay type: biochemical; conditions: 3H-5-HT accumulation into whole rat brain synaptosomes, in vitro; read-out: Inhibition of serotonin reuptake IC50
Protocol: Inhibition of ^3H-5-HT Uptake Into Rat Brain Synaptosomes
Using this method the ability of drugs to inhibit the accumulation of ^3H-5-HT into whole rat brain synaptosomes is determined in vitro.

human 5-HT1A receptors = target: T1, human 5-HT1A receptors (Homo sapiens, UniProt P08908); test: Inhibition of 3H-5-CT binding to human 5-HT1A receptors
T1 construct: expressed in transfected cells; host or cells: HeLa cells (HA7), used as cell homogenate
T1 sequence (P08908 1-422): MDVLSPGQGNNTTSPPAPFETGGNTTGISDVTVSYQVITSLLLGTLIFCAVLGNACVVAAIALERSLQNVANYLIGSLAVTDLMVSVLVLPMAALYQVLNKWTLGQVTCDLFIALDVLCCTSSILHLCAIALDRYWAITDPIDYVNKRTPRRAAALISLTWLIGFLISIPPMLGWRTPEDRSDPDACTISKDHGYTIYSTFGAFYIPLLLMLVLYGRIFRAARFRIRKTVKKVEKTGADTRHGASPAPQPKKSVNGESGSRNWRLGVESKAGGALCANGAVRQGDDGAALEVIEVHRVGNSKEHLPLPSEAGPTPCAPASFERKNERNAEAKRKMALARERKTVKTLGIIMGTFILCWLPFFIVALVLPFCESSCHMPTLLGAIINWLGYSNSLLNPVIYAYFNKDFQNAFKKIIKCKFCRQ
Protocol: Inhibition of ^3H-5-CT Binding to Human 5-HT1A Receptors
Human 5-HT1A receptors (40 μg of cell homogenate) were incubated for 15 minutes at 37° C. in 50 mM Tris buffer at pH 7.7 in the presence of ^3H-5-CT. Non-specific binding was determined by including 10 μM of metergoline. The reaction was terminated by rapid filtration through Unifilter GF/B filters on a Tomtec Cell Harvester. Filters were counted in a Packard Top Counter.

cloned 5-HT1A receptors = target: T2, cloned 5-HT1A receptors (Homo sapiens, UniProt P08908); test: Antagonism of 5-HT induced inhibition of forskolin induced cAMP accumulation; assay type: cell-based; conditions: cloned 5-HT1A receptors in transfected HeLa cells (HA7)
T2 construct: expressed in transfected cells; host or cells: HeLa cells (HA7)
T2 sequence (P08908 1-422): T1 sequence (P08908 1-422)
Protocol: The assay was performed as a modification of the method described by Pauwels, P. J et al, Biochem. Pharmacol. 1993, 45, 375.

[2] = cloned human 5-HT1A receptors expressed in transfected HeLa cells (HA7), cell homogenate, 15 minutes at 37° C., pH 7.7

Compound: Brc1ccc2[nH]cc(CCN3CCN(c4cccc5c4OCCO5)CC3)c2c1.O=C(O)C(=O)O [Compound 1b, 3-[2-[4-(1,4-Benzodioxan-5-yl)piperazin-1-yl]ethyl]-5-bromo-1H-indole oxalate]
melting point: 236 to 240 °C
IC50 [1]: 0.0028 µM
IC50 (human 5-HT1A receptors): 0.0072 µM
IC50 (cloned 5-HT1A receptors): 5 µM

melting point: 119 to 120 °C
IC50 [1]: 0.012 µM
IC50 (human 5-HT1A receptors; [2]): 0.013 µM
IC50 (cloned 5-HT1A receptors): 0.25 µM
Compound: CC(=O)N1CC(CCN2CCN(c3cccc4c3OCCO4)CC2)c2ccccc21 (centres unmarked) [Compound 2b]

Compound: Clc1cccc2[nH]cc(CCN3CCN(c4cccc5c4OCCO5)CC3)c12.O=C(O)C(=O)O [Compound 1e, 3-[2-[4-(1,4-Benzodioxan-5-yl)piperazin-1-yl]ethyl]-4-chloro-1H-indole oxalate]
melting point: 210 to 218 °C
IC50 [1]: 0.00025 µM
IC50 (human 5-HT1A receptors): 0.011 µM
IC50 (cloned 5-HT1A receptors): 2.4 µM

Compound: Clc1ccc2[nH]cc(CCN3CCN(c4cccc5c4OCC5)CC3)c2c1.O=C(O)C(=O)O [Compound 1n, 5-Chloro-3-[2-[4-(2,3-dihydrobenzofuran-7-yl)piperazin-1-yl]ethyl]-1H-indole oxalate]
melting point: 134 to 138 °C
IC50 [1]: 0.0021 µM
IC50 (human 5-HT1A receptors): 0.0082 µM
IC50 (cloned 5-HT1A receptors): 1.9 µM

Compound: Clc1ccc2c(CCN3CC=C(c4cccc5c4OCCO5)CC3)c[nH]c2c1.O=C(O)C(=O)O [Compound 1v, 3-[2-[4-(1,4-Benzodioxan-5-yl)-1,2,3,6-tetrahydropyridin-1-yl]ethyl]-6-chloro-1H-indole oxalate]
melting point: 240 to 247 °C
IC50 [1]: 0.00085 µM
IC50 (human 5-HT1A receptors): 0.00081 µM
IC50 (cloned 5-HT1A receptors): 3.3 µM

Compound: Clc1ccc2c(c1)NCC2CCN1CCN(c2cccc3c2OCCO3)CC1.O=C(O)C(=O)O (centres unmarked) [Compound 4d, 3-[2-[4-(1,4-Benzodioxan-5-yl)piperazin-1-yl]ethyl]-6-chloro-2,3-dihydro-1H-indole oxalate]
melting point: 185 to 188 °C
IC50 [1]: 0.0043 µM
IC50 (human 5-HT1A receptors; [2]): 0.014 µM
IC50 (cloned 5-HT1A receptors): 0.89 µM

Compound: Fc1ccc2[nH]cc(CCN3CCN(c4cccc5c4OCCO5)CC3)c2c1.O=C(O)C(=O)O [Compound 1h, 3-[2-[4-(1,4-Benzodioxan-5-yl)piperazin-1-yl]ethyl]-5-fluoro-1H-indole oxalate]
melting point: 224 to 226 °C
IC50 [1]: 0.0017 µM
IC50 (human 5-HT1A receptors): 0.0046 µM
IC50 (cloned 5-HT1A receptors): 0.28 µM

Compound: 3-[2-[4-(1,4-Benzodioxan-5-yl)piperazin-1-yl]ethyl]-6-methyl-1H-indole hemifumarate [Compound 1k]
IC50 [1]: 0.018 µM
IC50 (human 5-HT1A receptors; read-out: Inhibition of 3H-5-CT binding IC50, cloned human 5-HT1A receptors expressed in transfected HeLa cells (HA7), cell homogenate, 15 minutes at 37° C., pH 7.7): 0.002 µM
IC50 (cloned 5-HT1A receptors): 0.58 µM

Compound: CC1(C)CCc2cc(Cl)cc(N3CCN(CCc4c[nH]c5cc(Cl)ccc45)CC3)c2O1.O=C(O)/C=C/C(=O)O [Compound 3d, 6-Chloro-3-[2-[4-(6-chloro-2,2-dimethyl-3,4-dihydro-2H-1-benzopyran-8-yl)piperazin-1yl]ethyl]-1H-indole fumarate]
melting point: 224 to 225 °C
IC50 [1]: 0.015 µM
IC50 (human 5-HT1A receptors): 0.021 µM
IC50 (cloned 5-HT1A receptors): 2.3 µM
